Experimental data taken from US5545667A, “Methods for treating neoplasms with betaines” (The Clorox Company, priority 1994, dated 1996).
pIC50: −log10 of the molar value. Where a name gives a salt, the structure may show the parent alone.

Key:
PAM 212 cells = assay: Cell growth inhibition assay (surfactants, 3-4 days, Coulter counter), PAM 212; type: cell-based, mouse; settings: PAM212; PAM 212 mouse keratinocyte-derived tumor cells; 3-4 days; read-out: IC50 (uM conc. inhibiting growth of the cells by 50%)
Method: (§1) Established cell lines are the system of choice for the prescreening of unknown compounds for antineoplastic activity. The tumor cell line screen works on the following principle. Cancer cells, if provided with enough nutrients, will grow unchecked in vitro, allowing researchers to grow many types of cancer cells outside the body. To perform an assay, standard amounts of the various cancer cells are placed in individual wells of a microtiter plate, and incubated with the potential antineoplastic compound of interest, for a sufficient period of time to allow for at least a 6-fold control growth, generally 1 to 5 days depending on cell origin. At the end of the incubation period, the cell lines are stained and assayed by a variety of means including, for example, proteins stains or a colorimeter for normal growth, growth inhibition or cytotoxicity. These assays measure a compound's ability to inhibit cell growth and a positive response of the compounds in these assays would be indicative of the therapeutic potential of these compounds. See, for example, the protocols and data presented in Laskin et al., (1979) Cancer Res 39:383-390 for 5-fluorouracil in mouse and human cells in culture.
(§2) A total of ten cell lines were used to evaluate the growth inhibitory potency of the various surfactants. In these studies, human, rat, mouse and bovine cells were used. A spectrum of different tumor cell types were used including those derived from keratinocytes (PAM 212), leukemias (HL-60, U-937 and K-562), an epitheloid carcinoma (HeLa) and melanoma (B-16). The B16 melanoma was used since this is a common cell type used to evaluate antimetastatic activity of test compounds. The effect of the surfactants on three fibroblast cell lines (C3H 10T1/2, NIH 3T3 and R6) were also evaluated for comparison to the tumor cell lines. The activity of the surfactants was also evaluated using pulmonary aortic endothelial cells for effectiveness as antiangiogenic agents.
(§3) PAM 212 cells are a mouse keratinocyte-derived tumor cell line. U-937 cells are a human histiocytic tumor cell line. HeLa cells are an epitheloid tumor cell line. Three murine fibroblast cells lines tested included the mouse fibroblast cell line, C3H 10T1/2, the rat fibroblast cell line R6, and the NIH 3T3 mouse fibroblast cell line. The human leukemia cell line HL-60 and the mouse melanoma B-16 cell were also tested. K-562 cells were from the American Type Culture Collection. All cells were grown in Dulbecco's modified Eagle's medium in a 37° C. incubator in an atmosphere of 5% CO2.
(§4) For growth inhibition assays, cells were seeded at low density (2.5×10^4 cells in 0.5 ml of culture medium) into 24-well tissue culture plates (Falcon Labware, Lincoln Park, N.J.). After 24 hours at 37° C., increasing concentrations (1 to 100 uM) of the surfactants were added to the cells in the culture plate. Control cultures were incubated in the absence of any surfactant. The cells were then incubated for 3-4 days to allow for growth. Cells from individual wells in the culture plate were then removed and duplicate samples taken for counting using a Coulter counter. To remove adherent cells the plates were treated with 0.25% trypsin/0.2% EDTA (GIBCO, Grand Island, N.Y.).

C3H 10T1/2 cells = assay: Cell growth inhibition assay, C3H 10T1/2; type: cell-based, mouse; settings: C3H 10T1/2 mouse fibroblasts; 3-4 days; read-out: IC50 (uM conc. inhibiting growth of the cells by 50%)
Method: as §1, §2, §3, §4

HL-60 cells = assay: Cell growth inhibition assay, HL-60; type: cell-based, human
Method: as §1, §2, §3, §4

NIH 3T3 cells = assay: Cell growth inhibition assay, NIH 3T3; type: cell-based, mouse; settings: NIH3T3; NIH 3T3 mouse fibroblasts; 3-4 days; read-out: IC50 (uM conc. inhibiting growth of the cells by 50%)
Method: as §1, §2, §3, §4

K-562 cells = assay: Cell growth inhibition assay, K-562; type: cell-based; settings: Homo sapiens, K562; K-562 leukemia cells; 3-4 days; read-out: IC50 (uM conc. inhibiting growth of the cells by 50%)
Method: as §1, §2, §3, §4

B-16 cells = assay: Cell growth inhibition assay, B-16 melanoma; type: cell-based, mouse; settings: B16; B-16 mouse melanoma cells; 3-4 days; read-out: IC50 (uM conc. inhibiting growth of the cells by 50%)
Method: as §1, §2, §3, §4

R6 cells = assay: Cell growth inhibition assay, R6; type: cell-based, rat; settings: Fibroblast; R6 rat fibroblasts; 3-4 days; read-out: IC50 (uM conc. inhibiting growth of the cells by 50%)
Method: as §1, §2, §3, §4

CPA-5 cells = assay: Cell growth inhibition assay, CPA-5 endothelial cells; type: cell-based, bovine; settings: Bos taurus, CPA-5 bovine aortic endothelial cells, 3-4 days, read-out: IC50 (uM conc. inhibiting growth of the cells by 50%)
From the text: as §2, §3, §4
The compounds were tested as inhibitors of growth in the bovine aortic endothelial cell line CPA-5 as taught in Example 2 in order to evaluate the possibility that they may be anti-angiogenesis agents. A hallmark of angiogenesis is the outgrowth of endothelial cells which are required in the formation of new blood vessels. This process is a critical factor in the vascularization of tumors. Inhibition of neovascularization limits the growth of tumors and would be an effective means of treating cancer. FIG. 3 illustrates that three of the compounds, 8-3S, 12-5B and 12-1B, had no activity against the CPA-5 cell line in the concentration range tested (IC50 =>100 uM), while only relatively high concentrations of 12-3S (IC50 =70 uM) were effective in inhibiting the growth of CPA-5 cells. As indicated above, with several exceptions, these compounds were also not very effective in inhibiting the growth of each of the other cell types.

[1] = Critical micelle concentration (cmc); type: physicochemical
From the text: "Critical micelle concentration" or "cmc" refers to the point at which micelle formation begins.

ten cell lines = assay: Cell growth inhibition assays, panel of cell lines; type: cell-based, human, rat, mouse and bovine
From the text: as §2, §3, §4

[2] = system: HeLa cells, DNA synthesis; assay: DNA synthesis in HeLa cells (3H-thymidine); type: cell-based
Method: (§5) The 16-5B compound was evaluated further using HeLa cells to gain some insight into the mechanism of action of this group of compounds. In these studies, the ability of this compound to inhibit macromolecular synthesis in the cells was examined. The effects of 16-5B on DNA, RNA and protein synthesis was monitored using labeled thymidine, uridine or leucine, respectively. These precursors readily incorporate into the appropriate cellular macromolecules in the cells.
(§6) For assays of macromolecular biosynthesis in HeLa cells, cells were seeded into 60 mm culture dishes (Falcon Labware, Lincoln Park, N.J.) at a density 1×10^5 /ml in 5 mls of cell culture medium. Cells were allowed to grow at 37° C. for 48 hours before use. Culture plates were then removed from the incubator and washed with phosphate buffered saline. The cells were then incubated with increasing concentrations of the 16-5B in 2 ml of serum-free Dulbecco's modified Eagle's medium supplemented with 0.075% sodium bicarbonate. Control cultures were incubated in cell culture medium without surfactant. […] Two 0.5 ml aliquots were neutralized and counted for radioactivity using a scintillation counter.

[3] = system: HeLa cells, RNA synthesis; assay: RNA synthesis in HeLa cells (3H-uridine); type: cell-based; settings: Homo sapiens, FIG. 2, 2 hours 3H-uridine, read-out: IC50 for uridine uptake (RNA synthesis)
Method: as §5, §6

[4] = system: HeLa cells, protein synthesis; assay: Protein synthesis in HeLa cells (3H-leucine); type: cell-based; settings: Homo sapiens, FIG. 2, 4 hours 3H-leucine, read-out: IC50 for leucine uptake (protein synthesis)
Method: as §5, §6

alloreactive Tc cells = settings: dosages between 10 ng/ml and 100 ug/ml; WO85/05031; cited from earlier work

| IC50 (HL-60 cells; HL-60 human leukemia cells, 3-4 days, read-out: IC50 (uM conc. inhibiting growth of the cells by 50%)) | IC50 (K-562 cells) | IC50 (B-16 cells) | cmc [1] | pIC50 ([2]; Homo sapiens, FIG. 2, 1 hour 3H-thymidine, read-out: IC50 for thymidine uptake (DNA synthesis)) | pIC50 [3] | pIC50 [4] | Structure (SMILES) | IC50 (PAM 212 cells) | IC50 (C3H 10T1/2 cells) | fold greater sensitivity of HL-60 among the leukemia cells (HL-60 cells; HL-60 versus other leukemia cells) | IC50 (NIH 3T3 cells) | IC50 (R6 cells) | IC50 (CPA-5 cells) | fold concentration required to inhibit K-562 and U-937 growth relative to HL-60 (ten cell lines; K-562 and U-937 versus HL-60) | fold concentration range spanned by the IC50's (ten cell lines; across cell lines) | pIC50 (ten cell lines; all / all other cell lines tested, read-out: IC50 over the cell lines tested (range or bound)) | activity against all of the cell lines tested (ten cell lines; growth inhibition) | selective inhibition of macromolecular synthesis ([2]; DNA, RNA and protein synthesis compared) | immunosuppressive on alloreactive Tc cells (alloreactive Tc cells) |
| --- | --- | --- | --- | --- | --- | --- | --- | --- | --- | --- | --- | --- | --- | --- | --- | --- | --- | --- | --- |
| 0.5 µM | 5.5 µM | 20 µM | 10 µM | 4.52 | 4.52 | 4.52 | CCCCCCCCCCCCCCCC[N+](C)(C)CCCCCC(=O)[O-] [16-5B, N-(5-carboxypentyl)-N,N-dimethyl-1-hexadecanaminium hydroxide inner salt] | 6 µM | 53 µM | 10 to 100 fold | 24 µM | 18 µM | 18 µM | approximately ten | 100 fold | 4.28 to 6.30 | considerable activity against all of the cell lines tested | does not appear to selectively inhibit any of these processes |  |
|  |  |  |  |  |  |  | CCCCCCCCCCCC[N+](C)(C)CCCCCCCCCCCC.[Br-] [didodecyl dimethyl ammonium bromide] |  |  |  |  |  |  |  |  |  |  |  | immunosuppressive on alloreactive Tc cells |
